Assays:
[1] = target: tyrosinase (Homo sapiens, UniProt P14679); conditions: human melanocyte cultures; cited from earlier work
[2] = tested on: skin; assay: Skin lightening in volunteers by Minolta Chromameter b* parameter; assay type: in vivo, human; conditions: for dose dependence of skin lightening efficacy: 4% versus 7% arbutin in Examples 1 and 2 base formulas
Text: Ten volunteers between the ages of 18 and 60 years of age enrolled in the study. Volunteers included in the study were of Asian or Caucasian descent with a Fitzpatrick phototype III or above. Enrolled subjects were free of any systemic or dermatologic disorder, including a known history of allergies or other medical conditions which, in the opinion of the Medical Investigator, could interfere with the conduct of the study, interpretation of results, or increase the risk of adverse reactions. Moreover, volunteers had no clinically significant abnormal findings, based on their medical history, which may have affected study participation as determined by the investigator. Impaneled female volunteers were not pregnant (as assessed with a urine pregnancy test at the start of the study and every 4 weeks thereafter) and agreed to use suitable contraceptive methods throughout the duration of the study. All volunteers were willing to refrain from using any medications, moisturizers, sunscreens, fragrances or new personal care products/laundry detergents on the back for the duration of the study and were also willing to avoid sun exposure, on the back (ie, sunbathing), as best as possible and refrain from using tanning booths for the study duration. Furthermore, subjects agreed to avoid swimming for the entire study.
All volunteers reported to the clinical site every day, excluding weekends, for application of study products in an open label, un-blinded fashion. Study products and dosing were as follows:
All subjects had 2 cm^2 squares demarcated on their backs, with a plastic template adhered to the skin, for identification of treatment sites. […]
The safety of the formulations of Example 1 and Example 2 was assessed via Repeated Insult Patch Testing on 49 volunteers, in a separate study. All products used in the study presented herein were evaluated for safety through investigator scoring of the application sites at baseline, 4- and 8-weeks. […] Skin lightening was assessed via use of the Minolta CR-300 Chromameter® at baseline, 4- and 8-weeks. […]

Chain of tyrosinase (P14679 19-529): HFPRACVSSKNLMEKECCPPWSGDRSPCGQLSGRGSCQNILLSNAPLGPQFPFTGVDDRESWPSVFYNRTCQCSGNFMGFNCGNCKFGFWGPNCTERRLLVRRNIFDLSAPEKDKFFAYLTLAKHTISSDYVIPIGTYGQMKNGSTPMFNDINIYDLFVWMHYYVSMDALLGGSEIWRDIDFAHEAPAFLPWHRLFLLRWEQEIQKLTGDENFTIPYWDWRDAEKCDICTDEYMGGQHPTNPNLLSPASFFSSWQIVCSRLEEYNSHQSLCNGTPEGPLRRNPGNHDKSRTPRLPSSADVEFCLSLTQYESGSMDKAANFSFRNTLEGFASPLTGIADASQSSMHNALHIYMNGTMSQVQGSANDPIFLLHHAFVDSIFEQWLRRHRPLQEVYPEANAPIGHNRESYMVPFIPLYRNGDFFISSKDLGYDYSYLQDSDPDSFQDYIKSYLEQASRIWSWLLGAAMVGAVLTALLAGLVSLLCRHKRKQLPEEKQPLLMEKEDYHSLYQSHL

Question: What does the source list for `OC[C@H]1O[C@@H](Oc2ccc(O)cc2)[C@H](O)[C@@H](O)[C@@H]1O` [Arbutin, hydroxy phenyl-b-D-glucopyranoside]?
Answer: tyrosinase inhibiting potency relative to hydroquinone [1]: one-hundredth that of hydroquinone; dose dependence of skin lightening efficacy [2]: dose dependent; dose dependence of skin lightening efficacy ([2]; listed as arbutin): dose dependant; skin lightening efficacy of 7% arbutin versus 4% hydroquinone ([2]; 7% arbutin, relatively non-photoexposed skin, formulas similar to bleaching and correcting cream and Blender bases): equally as efficacious as 4% hydroquinone

Reference: patent publication US9883998B2, “Methods for lightening skin using arbutin compositions” (OMP, Inc., priority 2007, dated 2018)
